Assays:
[1] = biological target: Focal adhesion kinase 1 (Homo sapiens) (UniProt Q05397)
[2] = test system: Epidermal growth factor receptor (Homo sapiens), P00533 [UNDEFINED MUTATION]
[3] = biological target: Cyclin-dependent kinase 17 (Homo sapiens) (UniProt Q00537)
[4] = test system: Mast/stem cell growth factor receptor Kit (Homo sapiens), P10721 [V559D]
[5] = biological target: D(3) dopamine receptor (Homo sapiens) (UniProt P35462); conditions: Compound concentration 10.0 uM
[6] = biological target: Mitogen-activated protein kinase kinase kinase 4 (Homo sapiens) (UniProt Q9Y6R4)
Mitogen-activated protein kinase kinase kinase 4 (Homo sapiens), sequence (Q9Y6R4 whole entry): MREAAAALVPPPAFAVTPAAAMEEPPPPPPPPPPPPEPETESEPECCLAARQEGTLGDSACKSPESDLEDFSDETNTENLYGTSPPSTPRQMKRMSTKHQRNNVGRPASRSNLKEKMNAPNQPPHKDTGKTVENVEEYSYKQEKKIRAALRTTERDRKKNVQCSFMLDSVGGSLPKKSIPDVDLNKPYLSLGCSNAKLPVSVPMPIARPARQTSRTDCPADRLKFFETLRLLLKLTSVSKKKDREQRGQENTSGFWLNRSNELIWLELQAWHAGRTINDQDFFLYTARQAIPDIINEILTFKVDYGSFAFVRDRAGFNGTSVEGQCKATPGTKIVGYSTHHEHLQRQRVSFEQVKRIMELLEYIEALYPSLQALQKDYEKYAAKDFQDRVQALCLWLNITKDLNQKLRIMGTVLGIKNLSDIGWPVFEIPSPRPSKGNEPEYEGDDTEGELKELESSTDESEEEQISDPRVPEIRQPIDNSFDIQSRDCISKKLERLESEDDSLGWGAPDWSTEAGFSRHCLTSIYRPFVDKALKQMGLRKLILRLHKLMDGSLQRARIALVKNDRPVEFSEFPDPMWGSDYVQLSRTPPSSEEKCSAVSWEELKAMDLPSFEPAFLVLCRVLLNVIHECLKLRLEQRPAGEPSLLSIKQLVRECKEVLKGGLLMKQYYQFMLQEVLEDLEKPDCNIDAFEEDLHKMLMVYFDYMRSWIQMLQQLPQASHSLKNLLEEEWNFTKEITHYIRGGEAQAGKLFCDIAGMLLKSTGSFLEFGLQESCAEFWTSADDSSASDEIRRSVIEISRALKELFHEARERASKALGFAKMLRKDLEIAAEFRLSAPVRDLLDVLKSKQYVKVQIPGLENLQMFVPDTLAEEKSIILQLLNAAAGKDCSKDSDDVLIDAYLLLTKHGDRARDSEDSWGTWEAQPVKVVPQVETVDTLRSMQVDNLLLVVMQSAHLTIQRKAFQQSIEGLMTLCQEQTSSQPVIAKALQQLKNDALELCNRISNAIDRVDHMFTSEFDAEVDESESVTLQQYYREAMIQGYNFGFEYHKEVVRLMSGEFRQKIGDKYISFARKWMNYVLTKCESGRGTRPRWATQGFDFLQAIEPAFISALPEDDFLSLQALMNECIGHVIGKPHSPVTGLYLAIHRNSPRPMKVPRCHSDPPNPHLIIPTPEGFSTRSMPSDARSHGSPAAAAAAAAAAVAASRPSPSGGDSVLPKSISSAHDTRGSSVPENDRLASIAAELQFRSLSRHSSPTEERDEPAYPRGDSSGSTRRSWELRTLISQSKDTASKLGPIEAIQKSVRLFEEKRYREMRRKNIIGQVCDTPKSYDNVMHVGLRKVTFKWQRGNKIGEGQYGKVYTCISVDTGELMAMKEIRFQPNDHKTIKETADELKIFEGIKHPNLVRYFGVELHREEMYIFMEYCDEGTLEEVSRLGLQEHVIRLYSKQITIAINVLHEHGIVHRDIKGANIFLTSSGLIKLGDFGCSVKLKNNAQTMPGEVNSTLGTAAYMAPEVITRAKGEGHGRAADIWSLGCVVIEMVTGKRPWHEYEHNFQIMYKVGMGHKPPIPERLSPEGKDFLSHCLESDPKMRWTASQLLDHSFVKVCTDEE

[7] = biological target: Testis-specific serine/threonine-protein kinase 3 (Homo sapiens) (UniProt Q96PN8)
Testis-specific serine/threonine-protein kinase 3 (Homo sapiens), sequence (Q96PN8 whole entry): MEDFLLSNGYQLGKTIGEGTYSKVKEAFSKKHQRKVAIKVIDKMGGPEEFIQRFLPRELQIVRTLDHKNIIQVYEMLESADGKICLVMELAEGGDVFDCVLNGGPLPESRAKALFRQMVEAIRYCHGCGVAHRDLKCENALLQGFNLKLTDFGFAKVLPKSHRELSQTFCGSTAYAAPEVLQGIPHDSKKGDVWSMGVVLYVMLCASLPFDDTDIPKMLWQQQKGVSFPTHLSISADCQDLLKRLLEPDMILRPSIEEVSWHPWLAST

[8] = biological target: Dual specificity mitogen-activated protein kinase kinase 2 (Homo sapiens) (UniProt P36507)
Dual specificity mitogen-activated protein kinase kinase 2 (Homo sapiens), sequence (P36507 whole entry, the tested form may be a part): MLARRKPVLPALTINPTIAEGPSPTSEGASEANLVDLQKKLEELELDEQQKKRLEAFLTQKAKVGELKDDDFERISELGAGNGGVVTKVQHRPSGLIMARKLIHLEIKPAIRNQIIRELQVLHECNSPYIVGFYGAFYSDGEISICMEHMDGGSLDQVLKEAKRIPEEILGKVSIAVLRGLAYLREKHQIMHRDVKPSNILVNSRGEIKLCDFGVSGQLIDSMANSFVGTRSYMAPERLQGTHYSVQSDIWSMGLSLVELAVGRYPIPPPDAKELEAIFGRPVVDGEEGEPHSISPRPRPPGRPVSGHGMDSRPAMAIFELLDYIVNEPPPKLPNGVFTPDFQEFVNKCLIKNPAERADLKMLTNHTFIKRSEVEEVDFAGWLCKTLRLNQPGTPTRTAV

[9] = biological target: LIM domain kinase 1 (Homo sapiens) (UniProt P53667)
[10] = biological target: Bone morphogenetic protein receptor type-2 (Homo sapiens) (UniProt Q13873)
Bone morphogenetic protein receptor type-2 (Homo sapiens), sequence (Q13873 whole entry): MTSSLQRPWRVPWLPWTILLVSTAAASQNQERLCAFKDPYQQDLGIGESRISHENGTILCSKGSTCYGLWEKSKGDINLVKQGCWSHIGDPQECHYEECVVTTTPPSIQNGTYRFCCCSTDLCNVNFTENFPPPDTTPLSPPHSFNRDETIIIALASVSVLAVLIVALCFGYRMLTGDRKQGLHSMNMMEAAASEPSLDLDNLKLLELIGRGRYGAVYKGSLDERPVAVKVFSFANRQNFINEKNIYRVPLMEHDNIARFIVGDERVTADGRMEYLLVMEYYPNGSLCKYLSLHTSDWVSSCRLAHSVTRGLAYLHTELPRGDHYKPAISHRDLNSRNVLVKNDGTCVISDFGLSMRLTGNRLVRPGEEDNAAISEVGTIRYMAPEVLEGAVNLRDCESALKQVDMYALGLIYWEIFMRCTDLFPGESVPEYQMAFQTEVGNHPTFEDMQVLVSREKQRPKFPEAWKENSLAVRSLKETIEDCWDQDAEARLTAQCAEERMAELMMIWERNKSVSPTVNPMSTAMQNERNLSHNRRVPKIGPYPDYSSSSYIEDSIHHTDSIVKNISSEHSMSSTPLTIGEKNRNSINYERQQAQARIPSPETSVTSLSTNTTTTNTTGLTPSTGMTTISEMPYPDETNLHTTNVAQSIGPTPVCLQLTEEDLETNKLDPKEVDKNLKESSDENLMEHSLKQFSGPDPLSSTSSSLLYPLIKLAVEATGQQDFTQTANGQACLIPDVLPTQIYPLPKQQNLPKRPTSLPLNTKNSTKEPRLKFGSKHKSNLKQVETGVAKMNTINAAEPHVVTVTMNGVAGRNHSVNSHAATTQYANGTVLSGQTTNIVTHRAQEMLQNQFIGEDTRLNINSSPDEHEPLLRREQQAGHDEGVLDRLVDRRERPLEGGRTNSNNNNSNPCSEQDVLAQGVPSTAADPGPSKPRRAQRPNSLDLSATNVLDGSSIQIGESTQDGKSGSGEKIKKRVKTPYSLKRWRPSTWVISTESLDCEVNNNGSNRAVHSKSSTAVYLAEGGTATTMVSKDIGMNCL

[11] = biological target: Proto-oncogene tyrosine-protein kinase ROS (Homo sapiens) (UniProt P08922)
[12] = biological target: SRSF protein kinase 3 (Homo sapiens) (UniProt Q9UPE1)
SRSF protein kinase 3 (Homo sapiens), sequence (Q9UPE1 whole entry): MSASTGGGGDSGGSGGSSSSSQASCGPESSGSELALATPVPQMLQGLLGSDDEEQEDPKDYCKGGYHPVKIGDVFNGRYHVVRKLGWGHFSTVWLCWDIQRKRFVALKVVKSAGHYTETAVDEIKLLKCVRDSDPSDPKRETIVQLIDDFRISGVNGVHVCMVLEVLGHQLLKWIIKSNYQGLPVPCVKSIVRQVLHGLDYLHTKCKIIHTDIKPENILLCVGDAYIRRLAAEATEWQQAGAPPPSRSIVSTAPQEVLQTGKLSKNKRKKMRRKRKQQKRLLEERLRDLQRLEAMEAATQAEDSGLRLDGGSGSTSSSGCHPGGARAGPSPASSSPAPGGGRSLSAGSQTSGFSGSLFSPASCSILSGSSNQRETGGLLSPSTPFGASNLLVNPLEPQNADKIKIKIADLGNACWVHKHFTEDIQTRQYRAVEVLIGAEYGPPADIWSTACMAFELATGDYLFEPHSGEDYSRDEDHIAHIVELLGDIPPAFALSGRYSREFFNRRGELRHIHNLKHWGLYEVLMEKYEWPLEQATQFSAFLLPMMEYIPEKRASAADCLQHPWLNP

[13] = biological target: cAMP-dependent protein kinase catalytic subunit alpha (Homo sapiens) (UniProt P17612)
[14] = biological target: T1, Inhibitor of nuclear factor kappa-B kinase subunit beta (Homo sapiens) (UniProt O14920)
T1 sequence (whole entry): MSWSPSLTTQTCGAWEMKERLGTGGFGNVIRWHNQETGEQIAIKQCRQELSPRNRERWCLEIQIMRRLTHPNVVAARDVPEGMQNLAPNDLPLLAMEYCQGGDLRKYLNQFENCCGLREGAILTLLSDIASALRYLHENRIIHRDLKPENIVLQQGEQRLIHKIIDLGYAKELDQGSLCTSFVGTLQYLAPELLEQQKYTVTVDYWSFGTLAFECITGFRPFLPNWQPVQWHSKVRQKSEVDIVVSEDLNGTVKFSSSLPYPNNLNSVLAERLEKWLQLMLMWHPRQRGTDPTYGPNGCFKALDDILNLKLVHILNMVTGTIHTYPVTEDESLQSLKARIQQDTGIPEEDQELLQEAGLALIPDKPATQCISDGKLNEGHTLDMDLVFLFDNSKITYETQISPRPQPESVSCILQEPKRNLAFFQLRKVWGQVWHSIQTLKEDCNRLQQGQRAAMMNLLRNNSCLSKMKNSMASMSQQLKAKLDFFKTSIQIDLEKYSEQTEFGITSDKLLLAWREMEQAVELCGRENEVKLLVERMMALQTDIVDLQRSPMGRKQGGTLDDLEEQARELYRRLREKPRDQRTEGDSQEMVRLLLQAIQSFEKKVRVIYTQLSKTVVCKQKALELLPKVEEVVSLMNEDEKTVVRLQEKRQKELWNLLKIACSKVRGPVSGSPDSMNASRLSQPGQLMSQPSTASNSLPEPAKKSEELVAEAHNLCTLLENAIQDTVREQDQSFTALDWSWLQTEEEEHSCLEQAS

[15] = biological target: T2, Ephrin type-A receptor 8 (Homo sapiens) (UniProt P29322)
T2 sequence (whole entry): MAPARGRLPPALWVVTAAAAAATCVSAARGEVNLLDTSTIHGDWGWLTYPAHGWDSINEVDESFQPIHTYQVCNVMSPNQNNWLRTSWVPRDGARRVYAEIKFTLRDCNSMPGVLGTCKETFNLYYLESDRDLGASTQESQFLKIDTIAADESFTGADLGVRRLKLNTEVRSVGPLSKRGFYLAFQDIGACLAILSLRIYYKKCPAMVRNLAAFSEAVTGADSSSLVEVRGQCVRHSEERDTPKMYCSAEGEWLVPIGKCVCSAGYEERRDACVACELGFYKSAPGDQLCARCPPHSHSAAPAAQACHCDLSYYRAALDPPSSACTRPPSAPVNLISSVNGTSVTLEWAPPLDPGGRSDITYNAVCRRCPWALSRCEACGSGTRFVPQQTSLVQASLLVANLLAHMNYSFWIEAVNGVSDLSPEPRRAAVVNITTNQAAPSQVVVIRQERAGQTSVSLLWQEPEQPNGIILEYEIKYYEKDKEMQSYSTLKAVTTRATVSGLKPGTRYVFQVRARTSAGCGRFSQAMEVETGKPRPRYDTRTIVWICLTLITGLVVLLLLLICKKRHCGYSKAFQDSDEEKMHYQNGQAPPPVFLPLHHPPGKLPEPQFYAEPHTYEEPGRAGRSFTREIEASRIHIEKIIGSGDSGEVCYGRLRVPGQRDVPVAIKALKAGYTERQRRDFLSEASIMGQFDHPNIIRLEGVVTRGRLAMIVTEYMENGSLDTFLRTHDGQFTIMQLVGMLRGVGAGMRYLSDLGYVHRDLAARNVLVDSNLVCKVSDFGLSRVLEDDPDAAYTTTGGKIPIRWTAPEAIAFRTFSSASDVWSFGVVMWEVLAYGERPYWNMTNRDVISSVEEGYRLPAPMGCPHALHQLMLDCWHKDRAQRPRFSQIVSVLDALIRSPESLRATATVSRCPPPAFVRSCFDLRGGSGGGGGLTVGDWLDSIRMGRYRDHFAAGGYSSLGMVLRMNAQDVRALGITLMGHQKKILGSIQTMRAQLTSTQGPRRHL

[16] = Compound concentration 1000.0 nM
[17] = Compound concentration 100.0 nM

D(3) dopamine receptor (Homo sapiens), sequence (P35462 whole entry): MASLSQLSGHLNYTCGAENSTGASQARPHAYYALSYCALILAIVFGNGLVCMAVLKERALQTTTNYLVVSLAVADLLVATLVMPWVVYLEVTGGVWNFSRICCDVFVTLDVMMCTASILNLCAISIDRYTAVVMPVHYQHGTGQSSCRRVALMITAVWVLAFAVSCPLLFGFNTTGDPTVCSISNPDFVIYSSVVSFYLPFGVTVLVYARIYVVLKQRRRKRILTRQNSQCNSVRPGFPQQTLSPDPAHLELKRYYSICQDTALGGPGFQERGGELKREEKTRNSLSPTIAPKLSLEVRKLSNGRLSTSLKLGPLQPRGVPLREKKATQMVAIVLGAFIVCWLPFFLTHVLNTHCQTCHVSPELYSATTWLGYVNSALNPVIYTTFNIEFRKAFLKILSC
Cyclin-dependent kinase 17 (Homo sapiens), sequence (Q00537 whole entry, looked up): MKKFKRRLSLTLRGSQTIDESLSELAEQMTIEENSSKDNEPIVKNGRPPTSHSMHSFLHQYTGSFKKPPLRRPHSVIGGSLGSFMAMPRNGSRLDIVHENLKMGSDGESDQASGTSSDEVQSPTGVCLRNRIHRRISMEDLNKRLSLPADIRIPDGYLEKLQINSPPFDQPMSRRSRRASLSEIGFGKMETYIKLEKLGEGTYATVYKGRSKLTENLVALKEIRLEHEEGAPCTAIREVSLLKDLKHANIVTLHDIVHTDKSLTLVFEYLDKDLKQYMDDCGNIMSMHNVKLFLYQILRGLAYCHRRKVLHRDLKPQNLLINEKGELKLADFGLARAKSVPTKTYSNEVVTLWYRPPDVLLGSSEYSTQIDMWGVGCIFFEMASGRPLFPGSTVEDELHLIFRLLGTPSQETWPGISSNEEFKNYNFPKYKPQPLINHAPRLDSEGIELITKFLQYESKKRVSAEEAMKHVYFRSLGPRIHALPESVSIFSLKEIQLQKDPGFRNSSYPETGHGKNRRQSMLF

`C[C@@H]1CN(c2cc(-c3nn(C)c4ccc(OC5(C)CC5)cc34)ncn2)C[C@H](C)O1` [MLi-2-NC] showed a residual activity [1, 16] of 95%, a residual activity [2, 16] of 74% and a residual activity [3, 16] of 88%. It also gave a residual activity [4, 16] of 100%, an inhibition [5] of 2.71% and a residual activity [6, 16] of 100%. For the same compound, the residual activity [7, 16] was 75%, the residual activity [8, 16] was 73% and the residual activity [9, 16] was 95%. The residual activity [10, 16] was 54%, the residual activity [11, 16] was 100% and the residual activity [12, 16] was 98%. It also gave a residual activity [13, 16] of 95%, a residual activity [14, 16] of 76% and a residual activity [15, 16] of 100%.

In the case of `C[C@@H]1CN(c2cc(-c3n[nH]c4ccc(OC5(C)CC5)cc34)ncn2)C[C@H](C)O1` [MLi-2], the residual activity [1, 17] is reported as 81%, the residual activity [2, 17] is reported as 43% and the residual activity [3, 17] is reported as 89%. It also gave a residual activity [4, 17] of 100%, an inhibition [5] of -0.66% and a residual activity [6, 17] of 100%. For the same compound, the residual activity [7, 17] was 79%, the residual activity [8, 17] was 85% and the residual activity [9, 17] was 86%. For the same compound, the residual activity [10, 17] was 75%, the residual activity [11, 17] was 100% and the residual activity [12, 17] was 100%. It also gave a residual activity [13, 17] of 85%, a residual activity [14, 17] of 84% and a residual activity [15, 17] of 82%.

From ChEMBL document CHEMBL4507291 (2021)
